In patent US9340523B2, “Certain dipeptidyl peptidase inhibitors” (FOCHON PHARMA, INC., priority 2009, dated 2016):

Target: Recombinant human DPP-IV (Homo sapiens, UniProt P27487)
Assay: DPP-IV assay in vitro (H-Ala-Pro-AFC fluorescence)
Assay type: biochemical
Conditions: recombinant human DPP-IV 7.8 ng/ml, 30 min pre-incubation, H-Ala-Pro-AFC 50 μM
Description: DPP-IV Assay Solutions of test compounds in varying concentrations (10^−5 mol/L, 10^−6 mol/L, 10^−7 mol/L, 10^−8 mol/L, 10^−9 mol/L, 10^−10 mol/L, 10^−11 mol/L, and 10^−12 mol/L) were prepared in dimethyl sulfoxide (DMSO) and then diluted into assay buffer comprising: 10 mM Tris-HCl pH 8.0, 0.2 M NaCl, and 0.1% BSA. Recombinant human DPP-IV (7.8 ng/ml final concentration) was added to the dilutions and pre-incubated for 30 mins at room temperature before the reaction was initiated with H-Ala-Pro-AFC (50 μM final concentration). The total volume of the reaction mixture was 100 μl.
The fluorescence of the mixture was measured after 30 minutes (excitation at 405 nm; emission at 535 nm). Inhibition constants (IC50) were calculated by GraphPad Prism.

Sequence of Recombinant human DPP-IV (P27487 whole entry): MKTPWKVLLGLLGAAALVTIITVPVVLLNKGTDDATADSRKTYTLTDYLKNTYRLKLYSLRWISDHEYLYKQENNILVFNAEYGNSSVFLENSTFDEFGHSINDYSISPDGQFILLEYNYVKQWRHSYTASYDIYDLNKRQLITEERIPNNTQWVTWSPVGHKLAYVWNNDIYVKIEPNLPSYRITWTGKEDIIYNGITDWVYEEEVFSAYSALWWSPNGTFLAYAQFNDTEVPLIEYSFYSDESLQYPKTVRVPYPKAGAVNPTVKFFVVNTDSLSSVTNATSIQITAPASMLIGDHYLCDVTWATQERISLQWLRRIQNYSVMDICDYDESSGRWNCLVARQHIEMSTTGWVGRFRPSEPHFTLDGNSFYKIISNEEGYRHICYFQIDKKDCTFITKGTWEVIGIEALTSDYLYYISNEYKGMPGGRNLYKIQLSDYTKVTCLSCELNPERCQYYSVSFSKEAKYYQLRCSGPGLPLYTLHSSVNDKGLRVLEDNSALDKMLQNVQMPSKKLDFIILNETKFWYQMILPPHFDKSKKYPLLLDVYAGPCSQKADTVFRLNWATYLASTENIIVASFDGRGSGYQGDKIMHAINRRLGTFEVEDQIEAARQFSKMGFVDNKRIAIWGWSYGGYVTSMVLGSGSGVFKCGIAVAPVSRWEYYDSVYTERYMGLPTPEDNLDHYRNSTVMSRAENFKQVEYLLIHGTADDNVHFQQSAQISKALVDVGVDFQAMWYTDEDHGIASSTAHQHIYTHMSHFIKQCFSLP

IC50 [nM]	SMILES
22	Cc1nnc(N2CCC[C@@H](N)C2)n(Cc2ccccc2C#N)c1=O [Example 1, (R)-2-((3-(3-aminopiperidin-1-yl)-6-methyl-5-oxo-1,2,4-triazin-4(5H)-yl)methyl)benzonitrile]
640	Cc1nnc(N2CCC[C@@H](N)C2)n(Cc2cc(F)ccc2Cl)c1=O [Example 4, (R)-3-(3-aminopiperidin-1-yl)-4-(2-chloro-5-fluorobenzyl)-6-methyl-1,2,4-triazin-5(4H)-one]
242	Cc1nnc(N2CCC[C@@H](N)C2)n(Cc2cc(F)ccc2Br)c1=O [Example 2, (R)-3-(3-aminopiperidin-1-yl)-4-(2-bromo-5-fluorobenzyl)-6-methyl-1,2,4-triazin-5(4H)-one]
